In PubChem BioAssay (NCI):
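Cultured in 96-well plates, cells were exposed to test compound for 48 hours across five concentrations. At the GI50, growth is halved. At the TGI there is no net growth.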

What was measured:
Assay in all cases: inhibition of tumour cell growth, NCI panel, 48 h
RPMI-8226 leukemia = test system: RPMI-8226 leukemia
UO-31 renal = test system: UO-31 renal
LOX IMVI melanoma = test system: LOX IMVI melanoma
NCI-H460 lung = test system: NCI-H460 lung
K-562 leukemia = test system: K-562 leukemia
OVCAR-8 ovarian = test system: OVCAR-8 ovarian
A498 renal = test system: A498 renal
TK-10 renal = test system: TK-10 renal
HCT-116 colon = test system: HCT-116 colon
SF-539 CNS = test system: SF-539 CNS

SMILES	TGI (RPMI-8226 leukemia) [µM]	TGI (UO-31 renal) [µM]	TGI (LOX IMVI melanoma) [µM]	TGI (NCI-H460 lung) [µM]	TGI (K-562 leukemia) [µM]	TGI (OVCAR-8 ovarian) [µM]	TGI (A498 renal) [µM]	TGI (TK-10 renal) [µM]	TGI (HCT-116 colon) [µM]	GI50 (LOX IMVI melanoma) [µM]	GI50 (K-562 leukemia) [µM]	GI50 (OVCAR-8 ovarian) [µM]	GI50 (HCT-116 colon) [µM]	TGI (SF-539 CNS) [µM]
COc1cccc(C(=O)C#Cc2cnc(OC)nc2OC)c1	6.43	2.67	0.25	28.3	> 100	3.88	22.1	2.91	7.67	–	–	–	–	–
COc1cc(O)c2c(=O)c(OC)c(-c3ccc(OC)c(OC)c3)oc2c1	> 100	> 100	> 100	> 100	> 100	> 100	> 100	> 100	> 100	> 100	> 100	> 100	68.7	–
Cc1cc(NS(=O)(=O)c2ccc(NC(=O)c3cccc4c(Nc5ccc(S(N)(=O)=O)cc5)c5ccccc5nc34)cc2)no1	> 100	> 100	> 100	> 100	> 100	–	> 100	> 100	> 100	–	–	–	–	> 100
C=C(C)[C@@H]1CC[C@]2(C(=O)OC)CC[C@]3(C)[C@H](CC[C@@H]4[C@@]5(C)CC[C@H](O)C(C)(C)[C@@H]5CC[C@]43C)[C@@H]12	–	49.1	34.6	38.4	47	51.2	36.7	–	37.4	–	–	–	–	34.9
O=c1[nH]c(Nc2nc3ccccc3[nH]2)nc(O)c1Cc1ccccc1	> 100	> 100	–	> 100	> 100	> 100	> 100	> 100	> 100	–	–	–	–	> 100
CC(=O)OCC1OC(OCCCOP(=S)(OCCC#N)OCC2OC(n3ccc(N)nc3=O)C(OC(=O)c3ccccc3)C2OC(=O)c2ccccc2)C(OC(C)=O)C(OC(C)=O)C1OC(C)=O (centres undefined)	> 100	> 100	> 100	> 100	> 100	> 100	> 100	> 100	> 100	–	–	–	–	> 100
CN(CCCNC(=O)c1cc(-c2ccccc2)nc2ccccc12)CCCNC(=O)c1cc(-c2ccccc2)nc2ccccc12	10.6	6.52	3.56	3.81	4.69	5.65	10.1	14.9	3.33	–	–	–	–	4.67
CCN(CCN(CC)C(=O)Nc1ccccc1)C(=O)Nc1ccccc1	> 100	> 100	> 100	> 100	> 100	> 100	> 100	> 100	> 100	–	–	–	–	–
O=C1Cc2c([nH]c3ccc(C(=O)O)cc23)-c2ccccc2N1	> 100	> 100	> 100	> 100	> 100	> 100	> 100	> 100	> 100	–	–	–	–	> 100
CC[C@@]1(O)C(=O)OCc2c1cc1n(c2=O)Cc2c-1nc1ccccc1c2/C=N\NC(=O)C(N)CCSC (some centres undefined)	4.03	0.277	0.0368	0.624	> 100	4.36	0.359	> 100	1.58	–	–	–	–	–
O=C(c1ccco1)N(C(=O)N1CCN(c2ccccc2)CC1)S(=O)(=O)c1ccccc1	–	53.6	–	> 100	> 100	> 100	> 100	> 100	44	–	–	–	–	41.1
O=NN(CCF)C(=O)NC1CCSCC1	> 100	> 100	> 100	> 100	> 31.6	> 100	> 100	–	> 100	–	–	–	–	> 100
CCC1C(c2ccccc2O)c2cc3c(cc2OC1N1CCOCC1)OCO3 (centres undefined)	43.8	27	30.2	29.7	31.5	46.2	27.5	28	26.5	–	–	–	–	30.7
NC(Cc1ccc(S(=O)(=O)O)cc1)C(=O)NC(Cc1ccc(S(=O)(=O)O)cc1)C(=O)NC(Cc1ccc(S(=O)(=O)O)cc1)C(=O)NC(Cc1ccc(S(=O)(=O)O)cc1)C(=O)O (centres undefined)	> 100	> 100	> 100	> 100	–	> 100	> 100	> 100	> 100	–	–	–	–	> 100
CCN(CC)C1Oc2cc3c(cc2C(c2cccc(OC)c2OC)C1C)OCO3 (centres undefined)	16.4	40.5	21.6	17.7	14.4	22.6	23.3	46.3	12.8	–	–	–	–	28.2
C=C1CC[C@@H](C)[C@](C)(CCc2ccoc2)C/C=C\C=C/1C(=O)O	–	> 100	57	> 100	> 100	48.8	> 100	> 100	54.6	–	–	–	–	42.6
COC(=O)C1CCC(=O)N1C(c1ccc2c(c1)OCO2)c1cc(OC)c(OC)c(OC)c1 (centres undefined)	> 100	> 100	> 100	> 100	> 100	> 100	> 100	> 100	> 100	–	–	–	–	> 100
COc1ccc(C2=NOC(N)(c3ccc(OC)cc3)C2)cc1 (centres undefined)	> 100	> 100	> 100	> 100	> 100	> 100	> 100	> 100	> 100	–	–	–	–	> 100
N#C/C(C(=S)NCc1ccccc1)=C(/N)N1CCCC1	> 100	> 100	> 100	> 100	> 100	> 100	> 100	> 100	> 100	–	–	–	–	> 100
Nc1nc2c(C(=O)O)c3ccc([N+](=O)[O-])cc3c(=O)n2c2ccccc12	> 100	> 100	32.2	> 100	> 100	34.8	> 100	–	42.8	–	–	–	–	–
COC(=O)C(Cc1c[nH]c2ccccc12)N=C1Nc2ccncc2S(=O)(=O)N1c1cccc(OC(C)C)c1 (centres undefined)	54.4	> 100	> 100	> 100	> 100	> 100	> 100	> 100	> 100	–	–	–	–	> 100
